Data from the supplement of paper PMC10307832.

Tests used:
Experiment in all cases: relative viability (nuclei count vs DMSO), 5 days (fraction); higher = more cells survive
NCI-H2170 = system: NCI-H2170
Outline: (§1)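 Relative viability is defined as nuclei in treated wells over nuclei in vehicle wells. Duplicate plates were run and medians reported. Lung cancer cell lines in 1536-well plates were dosed by pin tool one day after seeding, with one drug or with a fixed anchor-drug dose plus five library-drug doses (not always all listed) in √10 steps, and nuclei were counted after 5 days.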

PC-14 = system: PC-14
Outline: as §1

NCI-H522 = system: NCI-H522
Outline: as §1

NCI-H2009 = system: NCI-H2009
Outline: as §1

NCI-H1755 = system: NCI-H1755
Outline: as §1

HARA = system: HARA
Outline: as §1

NCI-H2347 = system: NCI-H2347
Outline: as §1

EKVX = system: EKVX
Outline: as §1

UMC-11 = system: UMC-11
Outline: as §1

NCI-H1793 = system: NCI-H1793
Outline: as §1

NCI-H647 = system: NCI-H647
Outline: as §1

NCI-H358 = system: NCI-H358
Outline: as §1

COR-L23 = system: COR-L23
Outline: as §1

`COc1cc(N2CCC(C(N)=O)CC2)ccc1Nc1nc(N)c(Cl)c(Nc2ccccc2S(=O)(=O)C(C)C)n1` [HG-5-88-01] + N=C(N)NC(=N)NCCc1ccccc1 [Phenformin] (partner 250 µM) was tested, and the relative viability (NCI-H2170; first compound 1.265 µM) was 0.304, the relative viability (NCI-H2170; first compound 4 µM) was 0.352 and the relative viability (PC-14; first compound 0.04 µM) was 0.65. For the same compound, the relative viability (PC-14; first compound 0.1265 µM) was 0.522, the relative viability (PC-14; first compound 0.4 µM) was 0.484 and the relative viability (PC-14; first compound 1.265 µM) was 0.212. It also gave a relative viability (PC-14; first compound 4 µM) of 0.103, a relative viability (NCI-H522; first compound 0.04 µM) of 0.711 and a relative viability (NCI-H522; first compound 0.1265 µM) of 0.657. For the same compound, the relative viability (NCI-H522; first compound 0.4 µM) was 0.697, the relative viability (NCI-H522; first compound 1.265 µM) was 0.558 and the relative viability (NCI-H522; first compound 4 µM) was 0.502. For the same compound, the relative viability (NCI-H2009; first compound 0.04 µM) was 0.475, the relative viability (NCI-H2009; first compound 0.1265 µM) was 0.527 and the relative viability (NCI-H2009; first compound 0.4 µM) was 0.534. The relative viability (NCI-H2009; first compound 1.265 µM) was 0.484, the relative viability (NCI-H2009; first compound 4 µM) was 0.366 and the relative viability (NCI-H1755; first compound 0.04 µM) was 0.634. It also gave a relative viability (NCI-H1755; first compound 0.1265 µM) of 0.612, a relative viability (NCI-H1755; first compound 0.4 µM) of 0.605 and a relative viability (NCI-H1755; first compound 1.265 µM) of 0.616. The relative viability (NCI-H1755; first compound 4 µM) was 0.521, the relative viability (HARA; first compound 0.04 µM) was 0.439 and the relative viability (HARA; first compound 0.1265 µM) was 0.513. The relative viability (HARA; first compound 0.4 µM) was 0.48, the relative viability (HARA; first compound 1.265 µM) was 0.432 and the relative viability (HARA; first compound 4 µM) was 0.324. For the same compound, the relative viability (NCI-H2347; first compound 0.04 µM) was 0.295, the relative viability (NCI-H2347; first compound 0.1265 µM) was 0.626 and the relative viability (NCI-H2347; first compound 0.4 µM) was 0.448. For the same compound, the relative viability (NCI-H2347; first compound 1.265 µM) was 0.41, the relative viability (NCI-H2347; first compound 4 µM) was 0.487 and the relative viability (EKVX; first compound 0.04 µM) was 0.276. The relative viability (EKVX; first compound 0.1265 µM) was 0.262, the relative viability (EKVX; first compound 0.4 µM) was 0.204 and the relative viability (EKVX; first compound 4 µM) was 0.226. It also gave a relative viability (UMC-11; first compound 0.04 µM) of 0.336, a relative viability (UMC-11; first compound 0.1265 µM) of 0.419 and a relative viability (UMC-11; first compound 1.265 µM) of 0.359. It also gave a relative viability (UMC-11; first compound 4 µM) of 0.263, a relative viability (NCI-H1793; first compound 0.1265 µM) of 0.431 and a relative viability (NCI-H1793; first compound 0.4 µM) of 0.375. It also gave a relative viability (NCI-H1793; first compound 4 µM) of 0.221, a relative viability (NCI-H647; first compound 0.04 µM) of 0.663 and a relative viability (NCI-H647; first compound 0.1265 µM) of 0.595. The relative viability (NCI-H647; first compound 0.4 µM) was 0.624, the relative viability (NCI-H647; first compound 1.265 µM) was 0.608 and the relative viability (NCI-H647; first compound 4 µM) was 0.643. It also gave a relative viability (NCI-H358; first compound 0.04 µM) of 0.268, a relative viability (NCI-H358; first compound 0.1265 µM) of 0.246 and a relative viability (NCI-H358; first compound 0.4 µM) of 0.216. The relative viability (NCI-H358; first compound 1.265 µM) was 0.129, the relative viability (NCI-H358; first compound 4 µM) was 0.139 and the relative viability (COR-L23; first compound 0.04 µM) was 0.458. For the same compound, the relative viability (COR-L23; first compound 0.1265 µM) was 0.407, the relative viability (COR-L23; first compound 0.4 µM) was 0.406 and the relative viability (COR-L23; first compound 1.265 µM) was 0.377. It also gave a relative viability (COR-L23; first compound 4 µM) of 0.39.
